Measurements published in BindingDB's records for doi:10.7270/Q2TX3CTT (Broad Institute, 2010).

Each molecule was assayed against Glycogen synthase kinase-3 beta (Homo sapiens, UniProt P49841) (assay: GSK3beta kinase inhibitor potency, dose response, biochemical, luminescence, cell-free homogeneous, retest (AID 434954)).
Chain of Glycogen synthase kinase-3 beta (P49841 whole entry): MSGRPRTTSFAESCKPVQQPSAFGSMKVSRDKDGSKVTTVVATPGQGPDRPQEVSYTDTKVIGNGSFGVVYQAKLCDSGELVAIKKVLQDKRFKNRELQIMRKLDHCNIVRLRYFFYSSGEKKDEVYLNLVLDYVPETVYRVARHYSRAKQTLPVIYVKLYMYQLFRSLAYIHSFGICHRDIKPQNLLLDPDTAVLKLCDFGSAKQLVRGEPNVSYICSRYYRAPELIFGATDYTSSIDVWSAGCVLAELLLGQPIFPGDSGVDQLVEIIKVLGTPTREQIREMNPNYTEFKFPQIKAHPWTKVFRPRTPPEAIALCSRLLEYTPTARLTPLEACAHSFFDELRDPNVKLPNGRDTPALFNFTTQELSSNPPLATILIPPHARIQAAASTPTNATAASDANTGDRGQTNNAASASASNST
`COc1ccc(CN(CC(=O)NCCc2ccccc2)C(=O)CCC(=O)Nc2ccccn2)cc1` [N'-[(4-methoxyphenyl)methyl]-N'-[2-oxo-2-(2-phenylethylamino)ethyl]-N-pyridin-2-ylbutanediamide] showed an EC50 greater than 300 µM. `Cc1c(Cl)cccc1NC(=S)N(C)CCC#N` [3-(3-chloro-2-methylphenyl)-1-(2-cyanoethyl)-1-methylthiourea] showed an EC50 greater than 300 µM. Work on `C=CCN=C(NC#N)SCC(=O)c1cccc(OC)c1` [[2-(3-methoxyphenyl)-2-oxidanylidene-ethyl] N-cyano-N'-prop-2-enyl-carbamimidothioate] yielded an EC50 of 1.23 µM. `CC1CN(C(=O)CCCN2C(=O)c3ccccc3C2=O)CC(C)O1` (stereo unspecified) [2-[4-(2,6-dimethylmorpholin-4-yl)-4-oxobutyl]isoindole-1,3-dione] showed an EC50 greater than 300 µM. Molecule `CC(C)N(C(=O)Cc1ccccc1[N+](=O)[O-])C(C)C` [SMR000291889] has an EC50 greater than 300 µM. For `Cc1cc(=O)nc2c3ccccc3n(CC(=O)NCCCN3CCCCC3C)n12` (stereo unspecified) [MLS001115992], the EC50 was greater than 300 µM. `O=C(c1cccs1)c1coc2ccc(O)c(CN3CCOCC3)c12` [[4-(morpholin-4-ylmethyl)-5-oxidanyl-1-benzofuran-3-yl]-thiophen-2-yl-methanone] showed an EC50 greater than 300 µM. `COc1cc(SC)ccc1C(=O)OCC(=O)NCCNC(=O)COC(=O)c1ccc(SC)cc1OC` [MLS001129814] gave an EC50 greater than 300 µM. `Cc1cccc(NC(=O)C(C)n2cc([N+](=O)[O-])cn2)n1` (stereo unspecified) [N-(6-methylpyridin-2-yl)-2-(4-nitro-1H-pyrazol-1-yl)propanamide] showed an EC50 greater than 300 µM. For `N#Cc1c(-c2ccccc2)nc(SCC(=O)NC2CCCCC2)[nH]c1=O` [2-[(5-cyano-4-oxo-6-phenyl-1H-pyrimidin-2-yl)sulfanyl]-N-cyclohexylacetamide], the EC50 was greater than 300 µM. For `Cc1ccccc1CSc1nnc(-c2ccncc2)o1` [2-[(2-methylphenyl)methylsulfanyl]-5-pyridin-4-yl-1,3,4-oxadiazole], the EC50 was 22.1 µM. `O=C(Nc1cccnc1)Nc1ccccn1` [MLS000104821] showed an EC50 greater than 300 µM. For `O=C(O)c1cccc(-c2ccc(CN=Nc3ccc([N+](=O)[O-])cc3)o2)c1` [MLS000777078], the EC50 was greater than 300 µM. Molecule `O=c1cc(-c2ccccc2Cl)oc2c(NS(=O)(=O)c3ccccc3C(F)(F)F)ccc(O)c12` has an EC50 greater than 300 µM. Work on `COc1ccc(-n2sc3c(c2=S)-c2cc(OC)ccc2NC3(C)C)cc1` yielded an EC50 greater than 300 µM. For `CN(C)c1ccc(C(=O)NN2C(=O)c3ccccc3C2=O)cc1` [4-(dimethylamino)-N-(1,3-dioxo-2-isoindolyl)benzamide], the EC50 was greater than 300 µM. `O=C(COc1ccccc1[N+](=O)[O-])N/N=C/c1ccc[nH]1` [(2-Nitro-phenoxy)-acetic acid [1-(1H-pyrrol-2-yl)-meth-(E)-ylidene]-hydrazide] gave an EC50 greater than 300 µM. `CCOC(=O)C(C(=O)Nc1ccc(Cl)cc1Cl)C1=NC(C)(C)Cc2ccccc21` (stereo unspecified) was tested, and the EC50 was greater than 300 µM. With `CCC(C)Oc1cc(-c2ccnc(Nc3cccc(Cl)c3)n2)ccn1` (stereo unspecified) [SMR000463563] the EC50 was 5.38 µM. `COc1ccc(Nc2nc3ccc(OC)cc3s2)cc1` [MLS000684722] gave an EC50 greater than 300 µM. For `CN(C)Cc1c(C(=O)NN=Cc2ccoc2)nnn1-c1nonc1N` [1-(4-amino-1,2,5-oxadiazol-3-yl)-5-[(dimethylamino)methyl]-N-(3-furanylmethylideneamino)-4-triazolecarboxamide], the EC50 was 2.18 µM. `CCC(Sc1ccc2nnc(-c3ccc(F)cc3)n2n1)C(=O)OC` (stereo unspecified) [MLS000093330] was tested, and the EC50 was 20.1 µM. `Nc1nonc1-n1nnc(C(=O)NN=Cc2ccc(OCc3ccccc3)cc2)c1CN1CCCCC1` [MLS001075115] gave an EC50 of 8.87 µM. For `NS(=O)(=O)c1ccc(Nc2nc(-c3ccc(O)cc3O)cs2)cc1` [4-(4-(2,4-dihydroxyphenyl)thiazol-2-ylamino)benzenesulfonamide], the EC50 was 5.73 µM. Molecule `COc1ccc(Nc2nc(N)c(C(=O)c3ccc(F)cc3)s2)cc1` [{4-amino-2-[(4-methoxyphenyl)amino]-1,3-thiazol-5-yl}(4-fluorophenyl)methanone] has an EC50 of 0.662 µM. With `CCCc1cc(=O)oc2cc(C)cc(O)c12` [5-hydroxy-7-methyl-4-propyl-1-benzopyran-2-one] the EC50 was greater than 300 µM. For `CCOC(=O)c1nnn(-c2nonc2N)c1-c1ccc(OC)cc1` [1-(4-amino-1,2,5-oxadiazol-3-yl)-5-(4-methoxyphenyl)-4-triazolecarboxylic acid ethyl ester], the EC50 was 14.4 µM. `CC(C)(C)C(=O)COC(=O)c1ccc(O)cc1` was tested, and the EC50 was greater than 300 µM. Molecule `CC(=O)Nc1c(-c2ccccc2)nc2ccc(Cl)cn12` [MLS001077169] has an EC50 greater than 300 µM. `C[O+]=N[CH-]c1ccc(Oc2ccc(C)cc2)c([N+](=O)[O-])c1` [4-(4-methylphenoxy)-3-nitrobenzenecarbaldehyde O-methyloxime] gave an EC50 greater than 300 µM. `Cc1ccc(Nc2nc(NCCCN3CCOCC3)nc(N)c2[N+](=O)[O-])cc1C` [SMR000219808] showed an EC50 greater than 300 µM. With `Cc1nc(Nc2ccccc2)sc1C(=O)c1ccccc1` [(2-anilino-4-methyl-1,3-thiazol-5-yl)(phenyl)methanone] the EC50 was 19.8 µM. With `O=C(NCC1COc2ccccc2O1)c1ccccc1` (stereo unspecified) [SMR000069822] the EC50 was greater than 300 µM. `Cc1oc2c(CN(C)C)c(O)ccc2c(=O)c1-c1ccc2ccccc2n1` [8-[(dimethylamino)methyl]-2-methyl-7-oxidanyl-3-quinolin-2-yl-chromen-4-one] was tested, and the EC50 was greater than 300 µM. `Cc1nn(-c2ccccc2)c(Cl)c1C(=O)NCc1cccs1` [MLS000394567] gave an EC50 greater than 300 µM. `CCCn1nc(NC(=O)c2cccs2)c2cc3cc(C)ccc3nc21` [SMR000436650] was tested, and the EC50 was greater than 300 µM. With `COc1ccc(-c2nn(-c3ccccc3)cc2C(=O)O)cc1OC` [SMR000124387] the EC50 was greater than 300 µM. `Cc1ccc(-c2nn(-c3ccccc3)cc2C=C2C(=O)CC(C)(C)CC2=O)cc1` [5,5-dimethyl-2-[[3-(4-methylphenyl)-1-phenylpyrazol-4-yl]methylidene]cyclohexane-1,3-dione] gave an EC50 greater than 300 µM. Molecule `O=c1c2c3c(sc2n2c(S)nnc2n1-c1ccccc1)CCC3` [MLS000779668] has an EC50 of 34 µM. `CSc1nc(NCc2ccccc2)c2c3c(sc2n1)CN(C)CC3` was tested, and the EC50 was 23.3 µM. `CC(=O)c1cccc(NC(=O)NN2CCN(C)CC2)c1` [1-(3-ethanoylphenyl)-3-(4-methylpiperazin-1-yl)urea] gave an EC50 greater than 300 µM. Molecule `CCNc1nc(N)c(C(=O)C23CC4CC(CC(C4)C2)C3)s1` [Adamantan-1-yl-(4-amino-2-ethylamino-thiazol-5-yl)-methanone] has an EC50 greater than 300 µM. With `CC(=O)c1ccc(NC(=O)CN2C(=O)CCC2=O)cc1` [N-(4-acetylphenyl)-2-(2,5-dioxo-1-pyrrolidinyl)acetamide] the EC50 was greater than 300 µM. In the case of `CSc1nc(NCCCN(C)C)c2c3c(sc2n1)CN(C)CC3` [SMR000543143], the EC50 is reported as greater than 300 µM. With `O=[N+]([O-])c1cc(/C=N/n2cnnc2)ccc1N1CCCC1` [1-[3-nitro-4-(1-pyrrolidinyl)phenyl]-N-(1,2,4-triazol-4-yl)methanimine] the EC50 was greater than 300 µM. Molecule `COCc1c(C(=O)NN=Cc2ccncc2)nnn1-c1nonc1N` [MLS001194772] has an EC50 of 40.1 µM. `Cc1cc(C)n2nc(SCC(=O)N(CC(C)C)c3c(N)n(CC(C)C)c(=O)[nH]c3=O)nc2n1` was tested, and the EC50 was greater than 300 µM. `COC(=O)CCC(=O)Oc1ccc(OC(=O)CCC(=O)OC)cc1` [4-O-[4-(4-methoxy-4-oxobutanoyl)oxyphenyl] 1-O-methyl butanedioate] was tested, and the EC50 was greater than 300 µM. With `c1ccc(Nc2ncnc3[nH]ncc23)cc1` the EC50 was 45.5 µM. `Nn1c(-c2cccs2)nc2sc3c(c2c1=O)CCCC3` [3-azanyl-2-thiophen-2-yl-5,6,7,8-tetrahydro-[1]benzothiolo[2,3-d]pyrimidin-4-one] showed an EC50 greater than 300 µM. With `Cc1ccc2c(c1)COc1c3ccc(C(=O)O)cc3nn1-2` the EC50 was 8.69 µM. Molecule `COc1cccc(CSc2nnc(-c3ccc(F)cc3)o2)c1` [MLS000077100] has an EC50 of 22.5 µM. `COc1ccc(OC)c(C=NNC(=O)CCc2c(C)n[nH]c2C)c1` [MLS000769019] gave an EC50 greater than 300 µM. Work on `Cc1ccc(S(=O)(=O)NCC(=O)N(CCc2ccccc2)CC(=O)NCc2ccco2)cc1` [N-[2-(furan-2-ylmethylamino)-2-oxoethyl]-2-[(4-methylphenyl)sulfonylamino]-N-(2-phenylethyl)acetamide] yielded an EC50 greater than 300 µM. `COc1ccccc1Oc1coc2c(CN(C)C)c(O)ccc2c1=O` [8-[(dimethylamino)methyl]-7-hydroxy-3-(2-methoxyphenoxy)chromen-4-one] gave an EC50 greater than 300 µM. `Nc1nonc1-n1nnc(C(=O)NN=Cc2ccccc2F)c1CN1CCc2ccccc21` [MLS001075096] gave an EC50 of 22.5 µM. `Cc1cc(NC(=O)CSc2ccc3nnc(-c4cccs4)n3n2)no1` gave an EC50 greater than 300 µM. `Cc1c(Cl)cccc1Nc1ccccc1C(=O)O` was tested, and the EC50 was greater than 300 µM. For `O=NCc1ccc(Sc2ccccc2)c([N+](=O)[O-])c1` [N-[(3-nitro-4-phenylsulfanylphenyl)methylidene]hydroxylamine], the EC50 was 39.3 µM. Work on `CCn1c(SCC(=O)Nc2ccc(Br)cn2)nnc1C1CC1` [SMR000671057] yielded an EC50 of 75 µM. For `CN(CCO)S(=O)(=O)c1ccc2c(c1)C(=NNC(N)=O)c1cc(S(=O)(=O)N(C)CCO)ccc1-2` [MLS000766695], the EC50 was greater than 300 µM. Molecule `COc1ccc(Nc2ccccc2C(=O)O)cc1` [SMR000370544] has an EC50 greater than 300 µM. With `CCNC(=S)Nc1ccc2cn[nH]c2c1` [SMR000261305] the EC50 was greater than 300 µM. Work on `COc1ccccc1-c1c(C(F)(F)F)oc2c(CN(C)C)c(O)ccc2c1=O` [MLS001206868] yielded an EC50 greater than 300 µM. `Cc1cc(OCC(F)(F)C(F)(F)C(F)(F)C(F)F)nc(N)n1` [SMR000122155] was tested, and the EC50 was greater than 300 µM. Molecule `O=C(NCC(c1cccs1)N1CCOCC1)c1ccccc1NS(=O)(=O)c1ccc(Cl)cc1` (stereo unspecified) [SMR000242318] has an EC50 greater than 300 µM. For `O=C(CCc1ccccc1)Nc1cccc([N+](=O)[O-])c1` [MLS000856399], the EC50 was greater than 300 µM. With `CC1(C)CC(=O)C=C(Nc2ccc(Br)cn2)C1` [3-[(5-bromopyridin-2-yl)amino]-5,5-dimethylcyclohex-2-en-1-one] the EC50 was greater than 300 µM. With `Nc1nc(NCCOCCO)nc(NCc2ccccc2)c1[N+](=O)[O-]` [MLS001213400] the EC50 was 21.7 µM. In the case of `COc1ccc(/C=C(/NC(=O)c2ccccc2)C(=O)NN=Cc2ccncc2)c(OC)c1` [N-[(E)-1-(2,4-dimethoxyphenyl)-3-oxo-3-[2-(pyridin-4-ylmethylidene)hydrazinyl]prop-1-en-2-yl]benzamide], the EC50 is reported as greater than 300 µM. For `NC(=O)c1cccc2c1C(=O)N(C1CCCCC1)C2` [2-cyclohexyl-3-oxoisoindoline-4-carboxamide], the EC50 was greater than 300 µM.
